Article PMC11352099 (RSC Medicinal Chemistry, 2024)
Like-named read-outs stand apart in the source and are kept apart here.

Legend:
[1] = test system: SARS-CoV-2 strain hCoV-19/Czech Republic/NRL_6632_2/2020; assay: microbe, parasite or virus in culture; format: cell-based; details: Calu-3 cell line
human RNMT = human RNMT (Homo sapiens, UniProt O43148); assay: Off-target inhibition of human RNMT; format: biochemical; details: for inhibitory activity against RNMT: 25 μM concentration of inhibitor
Excerpt: Human cells rely on several MTases; therefore, it is necessary to assess the possible off-target effect. […]

in vitro [2] = details: human
[3] = 120 min, 10 μM
SARS-CoV-2 nsp14 MTase = SARS-CoV-2 nsp14 MTase (Severe acute respiratory syndrome coronavirus 2, UniProt P0DTD1); assay: biochemical; format: biochemical; details: for IC50: read-out: IC50; for Hill slope: Table S1, dose-response curve, variable slope model
[4] = microsomes, 0.75 h, 10 µM, pH 7.4
[5] = 120 min, 10 μM; remark: listed apart in the source
in vitro [6] = details: human; remark: listed apart in the source
Experimental: (§1) 3.5. Caco-2 permeability assay
(§2) Transepithelial bi-directional transport of compounds (10 µM, pH 7.4/7.4) was tested on 21-day differentiated Caco-2 monolayers. Briefly, the cells were seeded at a density of 67 ,500 cells per 96-well plate insert (Millicell®, Merck KGaA, Darmstadt, Germany). They were left to differentiate for 21 days with medium exchange every 2–3 days. Prior to the experiment, the medium from both apical and basolateral well was exchanged for HBSS buffer (containing 10 mM HEPES and 25 mM glucose) and left to equilibrate for 30 min. Compound permeability was assayed by replacing pure HBSS with HBSS containing 10 μM compounds and 220 μM Lucifer yellow (LY) solution in an apical insert (A to B transport) or in a basolateral well (B to A transport). The tre ated cells were then returned to the incubator for 2 h at 37 °C. After that, samples were collected from both apical inserts and basolateral wells and analyzed using LC -MS/MS (SCIEX Triple Quad™ 7500 QTRAP® Ready). LC separation was done on Synergi 4µm Fusion 50 × 2 mm column (Phenomenex) using a water/acetonitrile gradient with 0.1% formic acid starting from 2 to 98% for 4.5 min.
(§3) The apparent permeability coefficient (Papp) was calculated from t he following equation: Papp = (dQ / dt) / C0 * A, where dQ/dt is the rate of absorption of the drug across the cells, C0 is the donor compartment concentration at time zero, and A is the area of the monolayer. Efflux ratio was expressed as (Papp B -A) / (Papp A-B). Recovery (%) was determined as (total compound mass i n donor and receiver compartments at the end of the incubation / initial compound mass in the donor compartment) x 100. The data represent means ± SD of two independent experiments performed in triplicate. […]
(§4) were used as control compounds.

Caco-2 monolayers = assay: in vitro; details: Caco-2
Experimental: as §1, §2, §3, §4

[7] = microsomes, 0.75 h, 10 µM, pH 7.4; remark: listed apart in the source
in vitro [8] = details: mouse, plasma
[9] = Severe acute respiratory syndrome coronavirus 2, 72 h, MOI ∼0.01, 3 days, read-out: EC50 (antiviral effect)
[10] = Table 1 and text, N.I., no inhibition

Chain of human RNMT (O43148 whole entry): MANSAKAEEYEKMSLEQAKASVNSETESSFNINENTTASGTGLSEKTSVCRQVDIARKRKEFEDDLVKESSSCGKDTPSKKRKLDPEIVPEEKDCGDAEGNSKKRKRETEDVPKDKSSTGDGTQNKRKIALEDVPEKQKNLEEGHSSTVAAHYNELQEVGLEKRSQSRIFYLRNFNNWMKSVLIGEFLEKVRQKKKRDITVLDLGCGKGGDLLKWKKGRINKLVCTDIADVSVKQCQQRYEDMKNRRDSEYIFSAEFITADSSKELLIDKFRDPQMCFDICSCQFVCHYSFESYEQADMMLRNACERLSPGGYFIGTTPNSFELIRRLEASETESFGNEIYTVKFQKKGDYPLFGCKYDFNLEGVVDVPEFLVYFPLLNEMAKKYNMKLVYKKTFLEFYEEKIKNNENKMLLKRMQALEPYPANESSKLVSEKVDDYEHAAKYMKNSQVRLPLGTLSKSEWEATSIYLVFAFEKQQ

Structure (SMILES) | EC50 [1, 9] [µM] | IC50 (human RNMT) [µM] | inhibitory activity against RNMT (human RNMT) | CC50 at 3 days (in vitro [2]) [µM] | Plasma stability % of the parent compound after 120 min, Human [3] [%] | IC50 (SARS-CoV-2 nsp14 MTase; [10]) [µM] | Hill slope (SARS-CoV-2 nsp14 MTase) | Microsomal stability % of the parent compound after 45 min, Human [4] [%] | Plasma stability % of the parent compound after 120 min, Mouse [5] [%] | recovery at 2 h, 10 µM (in vitro [6]; Caco-2, Recovery (%) A-B) [%] | Papp B→A at 2 h, 10 µM (in vitro [6]; Caco-2, pH 7.4) [nm/s] | Papp B-A (Caco-2 monolayers) [cm/s x 10-6] | Microsomal stability % of the parent compound after 45 min, Mouse [7] [%] | EC50 ([1]; Severe acute respiratory syndrome coronavirus 2, Table S3, read-out: EC50) [µM] | IC50 (SARS-CoV-2 nsp14 MTase; values printed in Fig. 3 (correlation with GlideScore XP)) [µM] | efflux ratio at 2 h, 10 µM (in vitro [6]; Caco-2) | recovery at 2 h, 10 µM (in vitro [6]; Caco-2, Recovery (%) B-A) [%] | Papp A→B at 2 h, 10 µM (in vitro [6]; Caco-2, pH 7.4) [nm/s] | Papp A-B (Caco-2 monolayers) [cm/s x 10-6] | half-life at 2 h, 10 µM (in vitro [8]) [h]
Cc1cc(=O)oc2cc(NC(=O)[C@H]3O[C@@H](n4cc(C#Cc5cncnc5)c5c(N)ncnc54)[C@H](O)[C@@H]3O)ccc12 [18l] | 12 ± 6 | > 25 | None of the tested compounds exhibited any inhibitory activity | > 50 | 74 ± 0.2 | 0.031 ± 0.005 | -1.09 | 90 ± 4.2 | 89 ± 1.1 | 87 | 83 ± 5 | 8.3 ± 0.5 | 84 ± 2.5 | – | – | – | – | – | – | –
Cc1cc(=O)[nH]c2cc(NC(=O)[C@H]3O[C@@H](n4cc(C#Cc5cncnc5)c5c(N)ncnc54)[C@H](O)[C@@H]3O)ccc12 [18n] | 10 ± 3 | – | None of the tested compounds exhibited any inhibitory activity | > 50 | 93 ± 0.4 | 0.043 ± 0.005 | -1.29 | 90 ± 2.0 | 41 ± 0.7 | 148 | 73 ± 13 | 7.3 ± 1.3 | 85 ± 0.6 | 9.8 | 0.04 | 0.6 | 110 | 113 ± 37 | 11.3 ± 3.7 | 1.57
